Test results taken from patent US20070042995A1, “Use of acetyl-d-aminoglycosamine in treatment of local lesions and systematic symptoms related to infections of virus or bacteria” (Third Military Medical University , Chinese People …, priority 2003, published 2007).

Assays:
B16 tumor cells [1] = test: Cytological test of regulating micro-heterology variation; type: cell-based; details: final concentration 1 g/100 ml, incomplete 1640 media, cultured more than 48 hours
Method: Conventional incomplete 1640 culture media were used for cell culture, and B16 tumor cells (commercially obtained from the tumor cell library of Shanghai Institute of Cytobiology) were inoculated on said media. After being continuously cultured for more than 48 hours, the micro-heterology variation of cells and the control effects of N-acetyl-D-glucosamine thereon were observed under a condition where metabolic wastes affected the growth environment. […] The control cells cultured without N-acetyl-D-glucosamine could not proliferate on the same culture media under same conditions.

[2] = test system: Pseudomonas aeruginosa, serotype 8; test: Animal test of controlling local lesions and systemic symptoms caused by infection of microorganism; type: in vivo, rabbits; details: 10% aqueous solution i.v., 2 ml, 3 times per day, 3 days; for rabbits survived: of 10 rabbits
Method: 10 rabbits were used in tests. The rabbits were administered with a culture of Gram-negative bacteria (Pseudomonas aeruginosa, serotype 8, wherein the bacterial number in the culture is about 3×10^11) in a dose of 10 ml per day for consecutive 3 days. […] The rabbits were intravenously administered with N-acetyl-D-glucosamine (10% aqueous solution) a dose of 2 ml every time, 3 times per day, for consecutive 3 days. […] In the test group, all 10 rabbits survived, while in the control group, 8/10 rabbits of the control group died within one week, and only 2 rabbits survived.
When N-acetyl-D-glucosamine was replaced with N-acetyl-D-glucosamine hydrochloride in the tests (other conditions were not changed), 7/10 rabbits of test group survived.

B16 tumor cells [3] = test: Animal test of regulating micro-heterology variation (B16 tumor cells inoculated in rats); type: in vivo; details: of 50 rats; 5% aqueous solution i.p., 1 ml, 3 times per day, 7 days
From the text: In control group without the administration of the compound of formula (1), many proliferative corpuscles appeared in at least 40 among 50 rats within 1-3 days after the tumor cells were inoculated; many immature cells appeared within 3-5 days; and visible solid tumors finally appeared within about 10 days.

Proteus Mirabilis = test: Promoting wave test (bio-wave model); type: cell-based; details: final concentration 0.5%, 37° C., 9 hours
From the text: 1. Experimental Materials and Method: 1.1 Sample: Pure Compound of Formula (I) 1.2 Experimental Materials: • Strain: Proteus Mirabilis that meets the following biochemical reaction characteristics; dynamics (+), urease (+), lactose (−), glucose (+), H2S (−), phenylalanine deaminase (+). • Culture medium; modified LB culture medium (components: 1% tryptones, 0.5% yeast extract, 1% sodium chloride, 0.1% glucose, 0.002% TTC, and pH=7.2 to 7.4). 1.3 Experimental Method: • Control sample: the Proteus Mirabilis were inoculated at the center of LB plate, incubating at 37° C. for 9 hours; • Test sample: the compound of formula (I) with a final concentration of 0.5% was added to the LB plate, then the Proteus Mirabilis were inoculated by the same method, and cultured at 37° C. for 9 hours. 2. […] This wave-promoting function may explain the effects of using N-acetyl-D-glucosamine or pharmaceutically acceptable salts thereof for treating and controlling local lesions and systematic symptoms caused by infections of virus or bacteria.

[4] = in vivo
From the text: The toxicological test of the compound of formula (I) includes: • 1. Acute toxicity test: including tests of oral administration, intravenous injection administration, and maximum limit amount for administration; • 2. Ames test; • 3. Micronucleus test of mouse bone marrow cell; • 4. Abnormality test of mouse sperm; • 5. Aberration test of mouse testis chromosome; • 6. Chronic lethal test; • 7. Sub-chronic toxicity (feed for 90 days) test; • 8. Traditional deformity-inducing test.

CC(=O)N[C@@H]1[C@@H](O)[C@H](O)[C@@H](CO)O[C@H]1O [N-acetyl-D-glucosamine]
cell proliferation under metabolic waste conditions (B16 tumor cells [1]): the cell number stably increased with the culture time | inflammation of nasal mucosa and respiratory tract [2]: inflammations were alleviated | systemic toxic symptoms ([2]; after one week): symptoms were alleviated | rabbits survived [2]: 10 rabbits | number of rats in which solid tumor did not appear (B16 tumor cells [3]): 45 rats | bio-wave pattern of colony growth on LB plate (Proteus Mirabilis): not only concentric rings with an interval of 3 hours, but also many fine waves on each ring | dosage at which acute toxicosis reaction had not appeared [4]: more than 2 g/kg

CC(=O)N[C@H]1C(O)O[C@H](CO)[C@@H](O)[C@@H]1O.Cl (stereo partly drawn) [N-acetyl-D-glucosamine hydrochloride]
rabbits survived [2]: 7/10
